Legend:
rat [1] = settings: Chronic toxicity, wistar, Oral, Feed, dose end: 104 week, group: systemic
rat [2] = settings: Subchronic oral toxicity in rodents, wistar, Feed, dose end: 90 day, group: systemic
rabbit = settings: Prenatal developmental toxicity study, himalayan, Oral, Gavage/Intubation, dose end: 19 GD
dog [3] = settings: Chronic toxicity, beagle, Oral, Feed, dose end: 12 month, group: systemic
mouse = settings: Carcinogenicity, b6c3f1, Oral, [Not Specified], dose end: 78 week, group: systemic
rat [4] = settings: Carcinogenicity, wistar, Oral, Feed, dose end: 104 week, group: systemic
dog [5] = settings: Subchronic oral toxicity in nonrodent, beagle, Feed, dose end: 90 day, group: systemic
[6] = systemic / clinical chemistry / cholesterol / cholesterol
[7] = systemic / clinical chemistry / cholesterol / cholesterol + systemic / in life observation / body weight / body weight + systemic / in life …
[8] = systemic / clinical chemistry / albumin / albumin + systemic / clinical chemistry / protein / protein
[9] = systemic / organ weight / liver / absolute + systemic / organ weight / liver / relative to body weight + systemic / pathology microscopic / …
[10] = group: developmental, developmental / developmental malformation / bone / full supernumerary + developmental / developmental malformation / bone / fused + …
[11] = group: maternal, systemic / in life observation / body weight / body weight gain + systemic / in life observation / food consumption / food efficiency + …
[12] = systemic / organ weight / liver / relative to body weight + systemic / pathology microscopic / liver / hemosiderosis + systemic / clinical …
[13] = systemic / organ weight / kidney / absolute
[14] = systemic / pathology gross / lymph node / enlarged + systemic / pathology gross / spleen / enlarged + systemic / pathology microscopic / …
[15] = systemic / organ weight / liver / relative to body weight + systemic / pathology microscopic / spleen / hemosiderosis + systemic / …

**Q.** Which results are given for `CN1CSC(=S)N(C)C1` [Dazomet]?
**A.** LEL (rat [1]; [6]): 3.81 mg/kg/day; LOAEL (rat [1]; [6]): 3.81 mg/kg/day; NEL (rat [1]; [7]): 0.94 mg/kg/day; NOAEL (rat [1]; [7]): 0.94 mg/kg/day; LEL (rat [2]; [8]): 1.7 mg/kg/day; NEL (rat [2]; [8]): < 1.7 mg/kg/day; LOAEL (rat [2]; [9]): 4.5 mg/kg/day; NOAEL (rat [2]; [9]): 1.5 mg/kg/day; LEL (rabbit; [10]): 45 mg/kg/day; LOAEL (rabbit; [10]): 45 mg/kg/day; NEL (rabbit; [10]): 15 mg/kg/day; NOAEL (rabbit; [10]): 15 mg/kg/day; LOAEL (rabbit; group: maternal, systemic / in life observation / body weight / body weight gain + systemic / in life observation / food consumption / food efficiency): 45 mg/kg/day; LEL (rabbit; [11]): 45 mg/kg/day; NEL (rabbit; [11]): 15 mg/kg/day; NOAEL (rabbit; [11]): 15 mg/kg/day; LOAEL (dog [3]; systemic / organ weight / liver / relative to body weight + systemic / pathology microscopic / liver / hemosiderosis): 1.12 mg/kg/day; LEL (dog [3]; [12]): 1.12 mg/kg/day; NEL (dog [3]; [12]): 0.35 mg/kg/day; NOAEL (dog [3]; [12]): 0.35 mg/kg/day; LEL (mouse; [13]): 3.9 mg/kg/day; NEL (mouse; [13]): < 3.9 mg/kg/day; LOAEL (mouse; systemic / pathology microscopic / liver / adenoma): 15.6 mg/kg/day; NOAEL (mouse; systemic / pathology microscopic / liver / adenoma + systemic / in life observation / body weight / body weight + systemic / in life …): 3.9 mg/kg/day; LEL (rat [4]; systemic / pathology gross / lymph node / enlarged + systemic / pathology gross / spleen / enlarged): 0.9 mg/kg/day; LOAEL (rat [4]; [14]): > 3.71 mg/kg/day; NEL (rat [4]; [14]): 0.2 mg/kg/day; NOAEL (rat [4]; [14]): ≥ 3.71 mg/kg/day; LOAEL (dog [5]; systemic / organ weight / liver / relative to body weight + systemic / pathology microscopic / spleen / hemosiderosis): 7.25 mg/kg/day; LEL (dog [5]; [15]): 7.25 mg/kg/day; NEL (dog [5]; [15]): 3.5 mg/kg/day; NOAEL (dog [5]; [15]): 3.5 mg/kg/day

From EPA's ToxRefDB 2
